Holding throughout (test): Liquid phase testing (bacterial growth, OD600)
For assay [1], the system named is resistant Staphylococcus aureus. The assay is classed as cell-based. The following applies: S. aureus, 30 μg/ml positive control. The protocol: (§1) Stock solutions of extracts were prepared in dimethylsulfoxide (DMSO) at 10 mg/ml and stored in 200 μl aliquots at −20° C. until used. Two pathological agents were assessed: resistant Staphylococcus aureus and resistant Staphylococcus pseudointermedius. Three concentrations of each extract (5, 10 and 25 μg/ml) were evaluated in triplicate for each trial. Vehicle alone served as negative control. […] For selected samples, studies were repeated at 100 and 50 μg/ml.
(§2) A standard micro or mini-prep chase study was conducted. Briefly, liquid media was inoculated with a starting bolus of 0.01% bacteria and spiked with test extract at the study concentrations. Samples were incubated (shaking, 37° C.) overnight for 16 hours and bacterial growth enumerated by UV spectrometry in quadruplicate.

The subject of assay [2] is resistant Staphylococcus pseudointermedius. It is filed as cell-based, Staphylococcus pseudintermedius. The following applies: S. pseudo, 30 μg/ml positive control. The protocol:
as §1, §2

Assay [3] deals with P. acnes. It is filed as cell-based, Propionibacterium acnes. The following applies: 30 μg/ml positive control.
The mark [4] stands for this setting: higher concentration study (Table 4).

With `O=C(N[C@H](CO)[C@H](O)c1ccc([N+](=O)[O-])cc1)C(Cl)Cl` [CAP, Chloramphenicol], the “OD600” value in assay [1] (Table 2) was found to be 0.023; in assay [1] (setting [4]) it was 0.002; in assay [2] (Table 2), 0.021; in assay [2] (setting [4]), 0.004; in assay [3] (Table 2) it was 0.005; in assay [3] (setting [4]) it was 0.000.

For the origin of these results see patent US11260091B2, “Red seaweed extracts, formulations and anti-microbial uses thereof” (OCEANS LTD., priority 2017, dated 2022).
